{"source": "patent US8367696B2", "about": "“Aza-bridged-ring compound” (Astellas Pharma Inc., priority 2007, dated 2013)"}
{"test_system": "carbachol-induced airway contraction", "experiment": "Test of rat airway contraction (carbachol-induced rise in airway pressure)", "type": "in vivo", "settings": "evaluation after 3 hours from oral administration, carbachol 30 μg/kg i.v.", "procedure": "(§1) a. Test of Rat Airway Contraction\n(§2) Male SD rats (250 to 400 g) were anesthetized by the intraperitoneal administration of pentobarbital sodium (Nembutal; 50 mg/kg), and the major airway was dissected. An airway cannula was intubated into the trachea, and the pressure in the airway was measured by a pressure transducer. After administration of pancuronium bromide (0.2 mg/kg, i.v.), a stable pressure in the airway was obtained before the experiment was initiated. For the experiment, by administration into the external maxillary vein/administration into the duodenum/oral administration/administration into the airway, physiological saline (in the case of oral administration/administration into the duodenum, distilled water) or a compound to be tested was administered, and after 5 to 30 minutes in the case of intravenous administration, after 0.25 to 6 hours in the case of oral administration into the duodenum, and after 0.25 to 72 hours in the case of administration into the airway, carbachol was intravenously administered at a dose (volume) of 30 μg/kg (1 mL/kg), and the pressures in the airway were then measured, respectively, for a period of 5 minutes. […]", "units": {"ID50, carbachol-induced airway contraction inhibitory action": "mg/kg"}}
{"smiles": "Cl.O=C(Nc1ncsc1-c1ccccc1)OCC12CCN(CC1)CC2", "note": "[Example 6, 1-azabicyclo[2.2.2]oct-4-ylmethyl(5-phenyl-1,3-thiazol-4-yl)carbamate hydrochloride]", "ID50, carbachol-induced airway contraction inhibitory action": 0.1}
{"smiles": "O=C(Nc1ncsc1-c1ccccc1)OC12CCCN(CC1)CC2", "note": "[Example 14, 1-azabicyclo[3.2.2]non-5-yl(5-phenyl-1,3-thiazol-4-yl)carbamate]", "ID50, carbachol-induced airway contraction inhibitory action": 0.027}
{"smiles": "Cl.O=C(Nc1ncsc1-c1ccccc1)OC1C2CC3CC1CN(C3)C2", "note": "(centres unmarked) [Example 110]", "ID50, carbachol-induced airway contraction inhibitory action": 0.41}
{"smiles": "Cl.O=C(Nc1ccsc1-c1ccccc1)OCC1CN2CCC1CC2", "note": "(centres unmarked) [Example 136]", "ID50, carbachol-induced airway contraction inhibitory action": 0.68}
{"smiles": "Cl.O=C(Nc1ncsc1-c1ccc(F)cc1)OC12CCN(CC1)CC2", "note": "[Example 156]", "ID50, carbachol-induced airway contraction inhibitory action": 0.091}
{"smiles": "Cl.O=C(Nc1ncsc1-c1ccccc1)OCC1CN2CCCC1C2", "note": "(centres unmarked) [Example 264]", "ID50, carbachol-induced airway contraction inhibitory action": 0.21}
{"test_system": "carbachol-induced airway contraction", "experiment": "Test of rat airway contraction (carbachol-induced rise in airway pressure)", "type": "in vivo", "settings": "evaluation after 24 hours from administration into the trachea of 0.5 μg/kg of a drug", "procedure": "as §1, §2", "units": {"Inhibition rate, carbachol-induced airway contraction inhibitory action": "%"}}
{"smiles": "C[N+]12CCC(OC(=O)Nc3ncsc3-c3cccc(Cl)c3)(CC1)CC2", "note": "[Example 32]", "Inhibition rate, carbachol-induced airway contraction inhibitory action": 82}
{"smiles": "O=C(Nc1ccsc1-c1ccccc1)OCC1C[N+]2(CCCc3ccccc3)CCC1CC2", "note": "(centres unmarked) [Example 43]", "Inhibition rate, carbachol-induced airway contraction inhibitory action": 64}
{"smiles": "O=C(Nc1ncsc1-c1ccccc1)OC12CC[N+](CCOc3ccccc3)(CC1)CC2", "note": "[Example 46]", "Inhibition rate, carbachol-induced airway contraction inhibitory action": 90}
{"smiles": "O=C(Nc1ncsc1-c1ccccc1)OC12CC[N+](CCc3ccccc3)(CC1)CC2", "note": "[Example 50]", "Inhibition rate, carbachol-induced airway contraction inhibitory action": 61}
{"smiles": "C[N+]12CCC(OC(=O)Nc3ncsc3-c3cc(F)ccc3F)(CC1)CC2.[I-]", "note": "[Example 57]", "Inhibition rate, carbachol-induced airway contraction inhibitory action": 64}
{"smiles": "C[N+]12CCCC(OC(=O)Nc3ncsc3-c3ccccc3)(CC1)CC2.[I-]", "note": "[Example 65]", "Inhibition rate, carbachol-induced airway contraction inhibitory action": 61}
{"smiles": "O=C(Nc1ncsc1-c1cccc(Cl)c1)OC12CC[N+](CCOc3ccccc3)(CC1)CC2.[Br-]", "note": "[Example 66]", "Inhibition rate, carbachol-induced airway contraction inhibitory action": 80}
{"target": "muscarinic M3 receptor (Rattus norvegicus, UniProt P08483)", "sequence (P08483 whole entry)": "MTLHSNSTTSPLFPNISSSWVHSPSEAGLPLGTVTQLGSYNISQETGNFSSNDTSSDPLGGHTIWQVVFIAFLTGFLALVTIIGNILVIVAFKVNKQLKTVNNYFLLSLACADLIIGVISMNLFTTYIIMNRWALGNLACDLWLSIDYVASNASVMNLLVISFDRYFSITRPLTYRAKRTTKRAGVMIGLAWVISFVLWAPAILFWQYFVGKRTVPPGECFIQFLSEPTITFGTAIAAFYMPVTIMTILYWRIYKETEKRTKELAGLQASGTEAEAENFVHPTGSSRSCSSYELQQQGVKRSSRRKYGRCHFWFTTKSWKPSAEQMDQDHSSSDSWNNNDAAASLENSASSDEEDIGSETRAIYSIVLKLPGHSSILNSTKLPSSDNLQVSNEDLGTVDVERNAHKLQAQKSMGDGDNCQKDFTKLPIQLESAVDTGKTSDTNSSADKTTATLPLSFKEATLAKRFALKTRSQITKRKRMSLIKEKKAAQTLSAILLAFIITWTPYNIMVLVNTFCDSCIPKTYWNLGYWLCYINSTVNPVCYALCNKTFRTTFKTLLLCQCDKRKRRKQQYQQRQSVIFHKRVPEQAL", "experiment": "not given", "settings": "receptor binding antagonistic experiment, [3H]-N-methylscopolamine, rat membrane specimen, 25° C. 2 hours", "units": {"Ki": "nM"}}
{"smiles": "O=C(Nc1ncsc1-c1ccccc1)OC12CCN(CC1)CC2", "note": "[Example 95]", "Ki": 0.2}
